{"source": "patent US20110124713A1", "about": "“SAM-II RIBOSWITCH AND USES THEREOF” (The Regents of the University of Colorado, A body Corporate, priority 2007, published 2011)", "origin": "cited, not measured here", "tested_on": "SAM-II riboswitch", "details": "absence vs presence of SAM; nucleotides G8-U12 in L1"}
{"smiles": "C[S+](CC[C@H](N)C(=O)O)C[C@H]1O[C@@H](n2cnc3c(N)ncnc32)[C@H](O)[C@@H]1O", "note": "(stereo partly shown) [SAM, S-adenosylmethionine]", "values": [{"measurement": "ligand-dependent protections in in-line probing", "value": "strong ligand-dependent protections"}]}
